From patent US10874743B2, “IRAK degraders and uses thereof” (Kymera Therapeutics, Inc., priority 2017, dated 2020)

Each compound was assayed against T1, IRAK4 (Homo sapiens, UniProt Q9NWZ3) (assay: OCI-LY-10 MSD assay for IRAK4 DC50). Conditions: OCI-LY10 cells, 4 hr incubation, concentration required to degrade 50% of protein.
T1 sequence (Q9NWZ3 1-460): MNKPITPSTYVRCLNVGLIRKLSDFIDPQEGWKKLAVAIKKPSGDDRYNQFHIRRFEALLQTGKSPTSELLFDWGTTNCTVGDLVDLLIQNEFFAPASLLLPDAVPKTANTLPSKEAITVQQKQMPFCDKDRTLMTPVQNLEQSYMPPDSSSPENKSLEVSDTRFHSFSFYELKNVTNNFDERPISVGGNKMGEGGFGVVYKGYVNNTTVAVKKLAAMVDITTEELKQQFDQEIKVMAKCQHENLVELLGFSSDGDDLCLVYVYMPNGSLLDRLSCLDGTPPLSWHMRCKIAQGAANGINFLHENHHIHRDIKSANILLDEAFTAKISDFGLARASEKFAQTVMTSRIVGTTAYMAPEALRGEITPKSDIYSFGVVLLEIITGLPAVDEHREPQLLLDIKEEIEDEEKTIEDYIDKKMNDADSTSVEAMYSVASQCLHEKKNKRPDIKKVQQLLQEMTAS
Assay type: cell-based
Design: endogenous in cells; host or cells: OCI-LY10
Procedure: A MSD assay was run to determine the concentration of compound required to degrade 50% of protein (DC50).
Day 1 • Compounds were reconstituted to 10 mM in stock solutions. The stock solutions were diluted to 5 mM and 45 μL of each dilution was transferred to a 384 pp-plate. A 3 fold, 8-point serial dilution was performed by transferring 15 μL of compound into 30 μL DMSO using Janus. • 20 nL of each compounds were added into each well of a 96-well plate (Corning3799). • OCI-Ly10 cells were seeded into the 96-well plate at 3.0*10e^5 cells/100 μL/well. • The cell plate was shaken at 720 rpm for 5 min and incubated for 4 hr. • The 100 μL of cells were transferred into the 96-PCR plate and spun down at high speed for 5 mins. • The supernatant was discarded and 100 μL of RIPA lysis buffer with proteinase inhibitors was added per well. The plate was then sealed and shaken at 600 rpm and 4° C. for about 20 min. • The plate was then spun down at high speed (about 3200 g) for 30 min and then frozen in a −80° C. fridge. • A bare MSD plate (L15XA-3) was coated with 2 μg/mL of capture antibody (mouse Anti-IRAK4 antibody [2H9], ab119942) in PBS to 40 μL/well and incubated overnight at 4° C.
Day 2 • The MSD coated plate was washed 3× (150 μL/well) with 1×TBST (CST #9997S). • The MSD plate was then blocked with 150 μL of blocking buffer [3% Blocker A (MSD, R93BA-4) in TBST]/well and shaken for 1 hr at R^† and 600 rpm. • The MSD plate was washed 3× (150 μL/well) with 1×TBST. The sample RIPA lysates were then added to the MSD plate (50 μL/well) and shaken for 1 hr at R^† and 600 rpm. • The MSD plate was washed 3× (150 μL/well) with 1×TBST and the primary detection antibody (Rabbit Anti-IRAK4 antibody [Y279], ab32511) was added to a final concentration of 1 μg/ml with 25 μL/well. The plate was then shaken for 1 hr at RT and 600 rpm. • The MSD plate was washed 3× (150 μL/well) with 1×TBST and the secondary detection antibody, SULFO-TAG anti-species antibody (Anti Rabbit Antibody (R32AB-5) MSD, R32AB-1) was added to a volume of 25 μL/well at a final concentration of 1 jag/ml. The plate was then shaken for 1 hr at RT and 600 rpm. • The MSD plate was then washed 3× (150 μL/well) with 1×TBST. • lx MSD reading buffer was then added (150 μL/well) and the plate was diluted with 4× water. (MSD, R92TC-2) • The MSD instrument was then read.
Data Analysis • The remaining activity was calculated following the formula below:
Calculate • The DC50 was calculated by fitting the Curve using Xlfit (v5.3.1.3), equation 201: Y=Bottom+(Top−Bottom)/(1+10^((Log IC50−X)*HillSlope))
OCI-LY-10 DC50 results. The letter codes for IRAK4 DC50 indicate the concentration of compound required to degrade 50% of protein: A (<0.05 μM), B (0.05-0.1 μM), C (0.1-0.5 μM), D (0.5-1.0 μM), and E (>1.0 μM).

First: CN[C@@H](C)C(=O)N[C@H](C(=O)N1Cc2cc(OCCOCCOCCOCCNCc3ccc(-n4cc(NC(=O)c5coc(-c6ccnc(NCC7CC7)c6)n5)c(C(F)F)n4)cc3)ccc2C[C@H]1C(=O)N[C@@H]1CCCc2ccccc21)C(C)(C)C [I-681, 2-[2-(Cyclopropylmethylamino)-4-pyridyl]-N-[3-(difluoromethyl)-1-[4-[[2-[2-[2-[2-[[(3S)-2-[(2S)-3,3-dimethyl-2-[[(2S)-2-(methylamino)propanoyl]amino]butanoyl]-3-[[(1R)-tetralin-1-yl]carbamoyl]-3,4-dihydro-1H-isoquinolin-7-yl]oxy]ethoxy]ethoxy]ethoxy]ethylamino]methyl]phenyl]pyrazol-4-yl]oxazole-4-carboxamide]
Second: COCC(=O)N[C@H](C(=O)N1Cc2cc(OCCOCCOCCOCCOCCOCCNCc3ccc(-n4cc(NC(=O)c5coc(-c6ccnc(NCC7CC7)c6)n5)c(C(F)F)n4)cc3)ccc2CC1C(=O)N[C@@H]1CCCc2ccccc21)C(C)(C)C (stereo partly shown) [I-416]
The DC50 of the first is lower: 500 to 1000 nM for the first, over 1000 nM for the second.

First: Cn1c(=O)n(C2CCC(=O)NC2=O)c2cccc(CCCOCCOCCNCc3ccc(-n4cc(NC(=O)c5cnn6ccc(N7CCNCC7)nc56)c(C(F)F)n4)cc3)c21 (stereo not shown) [I-446, N-[3-(difluoromethyl)-1-[4-[[2-[2-[3-[1-(2,6-dioxo-3-piperidyl)-3-methyl-2-oxo-benzimidazol-4-yl]propoxy]ethoxy]ethylamino]methyl]phenyl]pyrazol-4-yl]-5-piperazin-1-yl-pyrazolo[1,5-a]pyrimidine-3-carboxamide]
Second: Cn1c(=O)n(C2CCC(=O)NC2=O)c2ccc(CCCCOCCCCNC(=O)c3ccc(-n4cc(NC(=O)c5cnn6ccc(N7CCNCC7)nc56)c(C(F)F)n4)cc3)cc21 (stereo not shown) [I-445, N-[3-(difluoromethyl)-1-[4-[4-[4-[1-(2,6-dioxo-3-piperidyl)-3-methyl-2-oxo-benzimidazol-5-yl]butoxylbutyl]carbamoyl]phenyl]pyrazol-4-yl]-5-piperazin-1-yl-pyrazolo[1,5-a]pyrimidine-3-carboxamide]
The DC50 of the first is higher: 100 to 500 nM for the first, 50 to 100 nM for the second.

`Cn1cc(NC(=O)c2coc(-c3ccnc(NCC(F)(F)F)c3)n2)c(C(=O)NCCOCCOCCOCCNc2cccc3c2C(=O)N(C2CCC(=O)NC2=O)C3=O)n1` (stereo not shown) [I-292] and `Cn1cc(NC(=O)c2coc(-c3ccnc(NCC(F)(F)F)c3)n2)c(C(=O)NCCOCCOCCOCCOCCOCCNc2cccc3c2C(=O)N(C2CCC(=O)NC2=O)C3=O)n1` (stereo not shown) [I-214] cannot be ordered by DC50: over 1000 nM for the first, over 1000 nM for the second.

Compared with `O=C1CCC(N2C(=O)c3cccc(NCCOCCOCCNC(=O)c4ccc(-n5cc(NC(=O)c6coc(-c7ccnc(NCC(F)(F)F)c7)n6)c(C(F)F)n5)cc4)c3C2=O)C(=O)N1` (stereo not shown) [I-261], `O=C1CCC(N2C(=O)c3cccc(N4CCN(CCOCCOCCNC(=O)c5ccc(-n6cc(NC(=O)c7coc(-c8ccnc(NCC9CC9)c8)n7)c(C(F)F)n6)cc5)CC4)c3C2=O)C(=O)N1` (stereo not shown) [I-273] is lower in DC50: 100 to 500 nM for the first, 50 to 100 nM for the second.

`Cn1cc(NC(=O)c2coc(-c3cccnc3NCCOCCOCCOCCNc3cccc4c3C(=O)N(C3CCC(=O)NC3=O)C4=O)n2)c(C(F)F)n1` (stereo not shown) [I-432, N-[3-(difluoromethyl)-1-methyl-pyrazol-4-yl]-2-[2-[2-[2-[2-[2-[[2-(2,6-dioxo-3-piperidyl)-1,3-dioxo-isoindolin-4-yl]amino]ethoxy]ethoxy]ethoxy]ethylamino]-3-pyridyl]oxazole-4-carboxamide] and `Cn1cc(NC(=O)c2coc(-c3ccncc3)n2)c(C(=O)NCCOCCOCCOCCNc2cccc3c2C(=O)N(C2CCC(=O)NC2=O)C3=O)n1` (stereo not shown) [I-301] cannot be ordered by DC50: over 1000 nM for the first, over 1000 nM for the second.

First: CN(CCOCCCc1cccc2c1C(=O)N(C1CCC(=O)NC1=O)C2=O)Cc1ccc(-n2cc(NC(=O)c3coc(-c4ccnc(NCC5CC5)c4)n3)c(C(N)=O)n2)cc1 (stereo not shown) [I-313]
Second: NC(=O)c1nn(-c2ccc(CNCCOCCOCCN3CCN(c4cccc5c4C(=O)N(C4CCC(=O)NC4=O)C5=O)CC3)cc2)cc1NC(=O)c1coc(-c2ccnc(NCC3CC3)c2)n1 (stereo not shown) [I-396]
The DC50 of the first is lower: under 50 nM for the first, 50 to 100 nM for the second.

Compared with `O=C1CCC(N2Cc3c(NC4CCN(CCOCCOCCNCc5ccc(-n6cc(NC(=O)c7coc(-c8ccnc(NCC9CC9)c8)n7)c(C(F)F)n6)cc5)CC4)cccc3C2=O)C(=O)N1` (stereo not shown) [I-384], `O=C1CCC(N2C(=O)c3cccc(NC4CCN(CCOCCOCCNCc5ccc(-n6cc(NC(=O)c7coc(-c8ccnc(NCC9CC9)c8)n7)c(C(F)F)n6)cc5)CC4)c3C2=O)C(=O)N1` (stereo not shown) [I-334] is lower in DC50: 500 to 1000 nM for the first, 50 to 100 nM for the second.

First: Cn1c(=O)n(C2CCC(=O)NC2=O)c2ccc(CCCCCCC(=O)N3CCN(C4CCC(Nc5ncnn6ccc(C7CCOCC7)c56)CC4)CC3)cc21 (stereo not shown) [I-438]
Second: Cn1c(=O)n(C2CCC(=O)NC2=O)c2ccc(CCCOCCOCCOCCOCC(=O)N3CCN(C4CCC(Nc5ncnc6[nH]cc(C7CCOCC7)c56)CC4)CC3)cc21 (stereo not shown) [I-447, 3-[3-Methyl-2-oxo-5-[3-[2-[2-[2-[2-oxo-2-[4-[4-[(5-tetrahydropyran-4-yl-7H-pyrrolo[2,3-d]pyrimidin-4-yl)amino]cyclohexyl]piperazin-1-yl]ethoxy]ethoxy]ethoxy]ethoxy]propyl]benzimidazol-1-yl]piperidine-2,6-dione]
The DC50 of the first is higher: over 1000 nM for the first, 50 to 100 nM for the second.

`O=C1CCC(N2C(=O)c3cccc(N4CCN(CCOCCNCc5ccc(-n6cc(NC(=O)c7coc(-c8ccnc(NCC9CC9)c8)n7)c(C(F)F)n6)cc5)CC4)c3C2=O)C(=O)N1` (stereo not shown) [I-390] and `O=C1CCC(N2C(=O)c3cccc(N4CCN(CCOCCOCCOCCNCc5ccc(-n6cc(NC(=O)c7coc(-c8ccnc(NCC9CC9)c8)n7)c(C(F)F)n6)cc5)CC4)c3C2=O)C(=O)N1` (stereo not shown) [I-391] fall in the same range of DC50: 100 to 500 nM for the first, 100 to 500 nM for the second.

Going from `Cn1c(=O)n(C2CCC(=O)NC2=O)c2cccc(CCCOCCOCCOCCOCC(=O)N[C@H]3CC[C@H](Nc4ncnc5[nH]cc(C6CCOCC6)c45)CC3)c21` (stereo partly shown) [I-440, 2-[2-[2-[2-[3-[1-(2,6-Dioxo-3-piperidyl)-3-methyl-2-oxo-benzimidazol-4-yl]propoxy]ethoxy]ethoxy]ethoxy]-N-[4-[(5-tetrahydropyran-4-yl-7H-pyrrolo[2,3-d]pyrimidin-4-yl)amino]cyclohexyl]acetamide] to `Cn1c(=O)n(C2CCC(=O)NC2=O)c2cccc(CCCOCCCOCCCNCc3ccc(-n4cc(NC(=O)c5coc(-c6ccnc(NCC7CC7)c6)n5)c(C(F)F)n4)cc3)c21` (stereo not shown) [I-406], the DC50 falls from over 1000 nM to under 50 nM.

First: Cn1c(=O)n(C2CCC(=O)NC2=O)c2ccc(CCCOCC(C)(C)COCCCNCc3ccc(-n4cc(NC(=O)c5coc(-c6ccnc(NCC7CC7)c6)n5)c(C(F)F)n4)cc3)cc21 (stereo not shown) [I-421]
Second: Cn1c(=O)n(C2CCC(=O)NC2=O)c2ccc(CCCOCCCOCCCNCc3ccc(-n4cc(NC(=O)c5coc(-c6ccnc(NCC7CC7)c6)n5)c(C(F)F)n4)cc3)cc21 (stereo not shown) [I-407]
The DC50 of the first is higher: 100 to 500 nM for the first, under 50 nM for the second.

Going from `Cn1cc(NC(=O)c2coc(-c3ccnc(NCC(F)(F)F)c3)n2)c(CNCCCOCCCOCCCNc2cccc3c2C(=O)N(C2CCC(=O)NC2=O)C3=O)n1` (stereo not shown) [I-412] to `Cn1c(=O)n(C2CCC(=O)NC2=O)c2cccc(CCCOCCCNCc3ccc(-n4cc(NC(=O)c5coc(-c6ccnc(NCC7CC7)c6)n5)c(C(F)F)n4)cc3)c21` (stereo not shown) [I-404], the DC50 falls from over 1000 nM to under 50 nM.

In the case of `Cc1ncsc1-c1ccc(CNC(=O)[C@@H]2C[C@@H](O)CN2C(=O)[C@@H](NCCOCCOCCOCCNC(=O)C2CCC(n3cc(NC(=O)c4coc(-c5ccnc(NCC(F)(F)F)c5)n4)c(C(N)=O)n3)CC2)C(C)(C)C)cc1` (stereo partly shown) [I-293], the DC50 is reported as over 1000 nM.
